# Patent US20090263410A1, “USE OF TGF-B1 INHIBITOR PEPTIDES IN THE PREPARATION OF AN IMMUNE RESPONSE MODULATING AGENT” (Proyecto De Biomedicina Cima, S.L., priority 2005, published 2009)
# Test system: lymphocyte cultures derived from nodes
# Test: Induction of T-helper response to FIS: IL-2 and IFN-γ in lymph node lymphocyte culture supernatants
# Type: in vivo, BALB/c mice
# Procedure: The FIS peptide is characterized as a T-helper determinant derived from sperm whale myoglobin, amino acids (106-118). This peptide has been widely used for the induction of antibodies against haptenic peptides. We wanted to analyse the effect of peptide p144 on the induction of a cytokine profile characterized among other things by the increase in IFN-γ and IL-12. In this model the following was administered by […] to groups of 3 female BALB/c mice, 4 to 8 weeks old, (Harlan, Barcelona), distributing the animals in the following treatments: • FIS: mice which received by […] a 1:1 emulsion of Freund's incomplete adjuvant and saline serum which contained 50 μg of FIS. • FIS+p144: mice which received by […] a 1:1 emulsion of Freund's incomplete adjuvant and saline serum which contained 50 μg of FIS and 50 μg of p144.
# 10 days after immunization, the animals were sacrificed and the popliteal, inguinal and periaortic lymph nodes were extracted. The nodes were homogenized with a syringe and they were washed three times at 4° C. with washing medium (clean RPMI 1640 medium). Next, the cells were resuspended in complete medium (RPMI 1640 with 10% FBS, 2 mM of glutamine, 100 U/ml of penicillin, 100 μg/ml of streptomycin, 5×10^−5 M of β-mercaptoethanol, 25 mM of Hepes and sodium pyruvate), at a concentration of 5.3×10^6 cells/ml adding 150 μl in each well of a flat-bottomed 96-well plate. The different peptide concentrations (6 and 10 μM) were added in triplicate and at a volume of […] per well. The cells were cultured in a stove at 37° C. and with 5% CO2 for two days. […] These supernatants were frozen at −20° C. until the quantification of the cytokine concentration.
# The quantity of IFN-γ was measured using a commercial ELISA (Mouse IFN-γ Duoset ELISA Development System, Genzyme, Cambridge and OPTEIA Mouse IFN-γ Set, Pharmingen, San Diego, USA) in accordance with the manufacturer's instructions. The results were expressed as pg/ml of IFN-γ using a standard curve of known quantities of IFN-γ.
# The quantity of IL-2 in each supernatant was measured by studying the proliferation of the CTL.L. cell line, whose growth is IL-2 dependent (Lai M. et al., 1987). […]
# To perform the assay, the supernatants were cultured with 3000-5000 CTL.L. cells per well, diluted to a final volume of 100 μl. […] The radioactivity was quantified in a scintillation counter (Top Count, Microplate Scintillation Counter, Packard) after the addition of 25 μl of scintillation liquid (MICROSCINT®, Packard, Bioscience Company) per well. The results of the counts were expressed as mU/ml of IL-2, interpolating the counts of each well in a standard curve. […]
# [1] = 50 μg FIS + 50 μg p144 in FIA versus FIS alone, in vitro restimulation with FIS
# [2] = lymphocytes from mice immunized with FIS+p144
substance,measurement,setting,value
p144: peptide inhibiting TGF-β1 whose amino acid sequence corresponds to SEQ ID NO: 1 (TSLDASIIWAMMQN; Synthetic Construct from human TGB-Beta1 type III receptor.Domain730-743),IFN-γ production compared to FIS,[1],reduced
same,IL-2 production compared to FIS,[1],reduced
same,IFN-γ production when restimulating in vitro against p144,[2],some production of IFN-γ
same,IL-2 production when restimulating in vitro against p144,[2],production of IL-2
